Laboratory results from patent publication US8748603B2, “Crystalline forms of N-[2-[[(2,3-difluorophenyl)methyl]THIO]-6-{[(1R,2S)-2,3-dihydroxy-1-methylpropyl]oxy}-4-pyrimidinyl]-1-azetidinesulfonamide” (AstraZeneca AB, priority 2010, dated 2014).

Experiment: Competitive slurry trials between A-form and D-form (thermodynamic stability)
Type: physicochemical
Settings: for Solid form stability in competitive slurry: slurries containing A-form and D-form in methanol, held at about 5° C. to about 50° C.; for Relative thermodynamic stability of crystalline forms: D-form versus A-form, conclusion from competitive slurries in methanol, about 5° C. to about 50° C.
Method: Competitive slurry trials were performed between the A-form (obtained by Example 1) and the D-form (obtained by Example 2).
Competitive slurries containing the A-form and D-form in methanol were held at any temperatures ranging from about 5° C. to about 50° C.
Complete conversion of the A-form to the D-form takes place, if the slurry is held at a particular temperature for a sufficient duration of time.

Solid form stability in competitive slurry	SMILES	Relative thermodynamic stability of crystalline forms	Relative thermodynamic stability of crystalline forms (listed as Form D)
transforms to the D-form	C[C@@H](Oc1cc(NS(=O)(=O)N2CCC2)nc(SCc2cccc(F)c2F)n1)[C@@H](O)CO [A-form, N-[2-[[(2,3-difluorophenyl)methyl]thio]-6-{[(1R,2S)-2,3-dihydroxy-1-methylpropyl]oxy}-4-pyrimidinyl]-1-azetidinesulfonamide]		
remained stable	C[C@@H](Oc1cc(NS(=O)(=O)N2CCC2)nc(SCc2cccc(F)c2F)n1)[C@@H](O)CO [D-form, N-[2-[[(2,3-difluorophenyl)methyl]thio]-6-{[(1R,2S)-2,3-dihydroxy-1-methylpropyl]oxy}-4-pyrimidinyl]-1-azetidinesulfonamide]	thermodynamically more stable form than the A-form	more thermodynamically stable than the A-form
